Here are results for eleven compounds from BindingDB's records for doi:10.1016/s0960-894x(99)00336-4 (Merck Research Laboratories, 1999).

This assay is described as follows: Inhibitory activity against Calcineurin (CaN phosphatase).
Regarding `CC[C@@H]1/C=C(\C)C[C@H](C)C[C@H](OC)[C@H]2O[C@@](O)(C(=O)C(=O)N3CCCC[C@H]3C(=O)O[C@H](/C(C)=C/C3CC[C@@H](OC[C@H](O)c4ccc(F)c(F)c4)[C@H](OC)C3)[C@H](C)[C@H](O)CC1=O)[C@H](C)C[C@@H]2OC` (stereo partly specified) [12-(2-{4-[2-(3,4-Difluoro-phenyl)-2-hydroxy-ethoxy]-3-methoxy-cyclohexyl}-1-methyl-vinyl)-17-ethyl-1,14-dihydroxy-23,25-dimethoxy-13,19,21,27-tetramethyl-11,28-dioxa-4-aza-tricyclo[22.3.1.0*4,9*]octacos-18-ene-2,3,10,16-tetraone], the 50% inhibitory concentration (IC50) (as a rule, the point on the concentration scale where inhibition reaches its midpoint) was 8.7 nM.

In the case of `CC[C@@H]1/C=C(\C)C[C@H](C)C[C@H](OC)[C@H]2O[C@@](O)(C(=O)C(=O)N3CCCC[C@H]3C(=O)O[C@H](/C(C)=C/C3CC[C@@H](OC[C@H](O)c4ccc5ccccc5c4)[C@H](OC)C3)[C@H](C)[C@H](O)CC1=O)[C@H](C)C[C@@H]2OC` (stereo partly specified) [17-Ethyl-1,14-dihydroxy-12-{2-[4-(2-hydroxy-2-naphthalen-2-yl-ethoxy)-3-methoxy-cyclohexyl]-1-methyl-vinyl}-23,25-dimethoxy-13,19,21,27-tetramethyl-11,28-dioxa-4-aza-tricyclo[22.3.1.0*4,9*]octacos-18-ene-2,3,10,16-tetraone], the concentration for half-maximal inhibition (IC50) worked out at 7.3 nM.

For `CC[C@@H]1/C=C(\C)C[C@H](C)C[C@H](OC)[C@H]2O[C@@](O)(C(=O)C(=O)N3CCCC[C@H]3C(=O)O[C@H](/C(C)=C/C3CC[C@@H](OC[C@@H](O)c4cc(C)cc(C)c4)[C@H](OC)C3)[C@H](C)[C@H](O)CC1=O)[C@H](C)C[C@@H]2OC` (stereo partly specified) [12-(2-{4-[2-(3,5-Dimethyl-phenyl)-2-hydroxy-ethoxy]-3-methoxy-cyclohexyl}-1-methyl-vinyl)-17-ethyl-1,14-dihydroxy-23,25-dimethoxy-13,19,21,27-tetramethyl-11,28-dioxa-4-aza-tricyclo[22.3.1.0*4,9*]octacos-18-ene-2,3,10,16-tetraone], the IC50 was 7.9 nM.

Take `CC[C@@H]1/C=C(\C)C[C@H](C)C[C@H](OC)[C@H]2O[C@@](O)(C(=O)C(=O)N3CCCC[C@H]3C(=O)O[C@H](/C(C)=C/C3CC[C@@H](OC[C@@H](O)c4ccc(F)c(F)c4)[C@H](OC)C3)[C@H](C)[C@H](O)CC1=O)[C@H](C)C[C@@H]2OC` (stereo partly specified) [12-(2-{4-[2-(3,4-Difluoro-phenyl)-2-hydroxy-ethoxy]-3-methoxy-cyclohexyl}-1-methyl-vinyl)-17-ethyl-1,14-dihydroxy-23,25-dimethoxy-13,19,21,27-tetramethyl-11,28-dioxa-4-aza-tricyclo[22.3.1.0*4,9*]octacos-18-ene-2,3,10,16-tetraone]: the IC50 stood at 7.3 nM.

Consider `CC[C@@H]1/C=C(\C)C[C@H](C)C[C@H](OC)[C@H]2O[C@@](O)(C(=O)C(=O)N3CCCC[C@H]3C(=O)O[C@H](/C(C)=C/C3CC[C@@H](OC[C@@H](O)c4cccc(C(F)(F)F)c4)[C@H](OC)C3)[C@H](C)[C@H](O)CC1=O)[C@H](C)C[C@@H]2OC` (stereo partly specified) [17-Ethyl-1,14-dihydroxy-12-(2-{4-[2-hydroxy-2-(3-trifluoromethyl-phenyl)-ethoxy]-3-methoxy-cyclohexyl}-1-methyl-vinyl)-23,25-dimethoxy-13,19,21,27-tetramethyl-11,28-dioxa-4-aza-tricyclo[22.3.1.0*4,9*]octacos-18-ene-2,3,10,16-tetraone], for which the IC50 worked out at 4.9 nM.

`CC[C@@H]1/C=C(\C)C[C@H](C)C[C@H](OC)[C@H]2O[C@@](O)(C(=O)C(=O)N3CCCC[C@H]3C(=O)O[C@H](/C(C)=C/C3CC[C@@H](OC[C@H](O)c4cccc(C(F)(F)F)c4)[C@H](OC)C3)[C@H](C)[C@H](O)CC1=O)[C@H](C)C[C@@H]2OC` (stereo partly specified) [17-Ethyl-1,14-dihydroxy-12-(2-{4-[2-hydroxy-2-(3-trifluoromethyl-phenyl)-ethoxy]-3-methoxy-cyclohexyl}-1-methyl-vinyl)-23,25-dimethoxy-13,19,21,27-tetramethyl-11,28-dioxa-4-aza-tricyclo[22.3.1.0*4,9*]octacos-18-ene-2,3,10,16-tetraone]: the IC50 came to 5.9 nM.

As to `CC[C@@H]1/C=C(\C)C[C@H](C)C[C@H](OC)[C@H]2O[C@@](O)(C(=O)C(=O)N3CCCC[C@H]3C(=O)O[C@H](/C(C)=C/C3CC[C@@H](OC[C@H](O)c4cc5ccccc5s4)[C@H](OC)C3)[C@H](C)[C@H](O)CC1=O)[C@H](C)C[C@@H]2OC` (stereo partly specified) [12-{2-[4-(2-Benzo[b]thiophen-2-yl-2-hydroxy-ethoxy)-3-methoxy-cyclohexyl]-1-methyl-vinyl}-17-ethyl-1,14-dihydroxy-23,25-dimethoxy-13,19,21,27-tetramethyl-11,28-dioxa-4-aza-tricyclo[22.3.1.0*4,9*]octacos-18-ene-2,3,10,16-tetraone], the IC50 is 4.2 nM.

For `C=CC[C@@H]1/C=C(\C)C[C@H](C)C[C@H](OC)[C@H]2O[C@@](O)(C(=O)C(=O)N3CCCC[C@H]3C(=O)O[C@H](/C(C)=C/[C@@H]3CC[C@@H](O)[C@H](OC)C3)[C@H](C)[C@@H](O)CC1=O)[C@H](C)C[C@@H]2OC` [(E)-(1R,9S,12S,13R,14R,21S,23S,24R,25S,27R)-17-Allyl-1,14-dihydroxy-12-[(E)-2-((3R,4R)-4-hydroxy-3-methoxy-cyclohexyl)-1-methyl-vinyl]-23,25-dimethoxy-13,19,21,27-tetramethyl-11,28-dioxa-4-aza-tricyclo[22.3.1.0*4,9*]octacos-18-ene-2,3,10,16-tetraone], the concentration for half-maximal inhibition (IC50) worked out at 15 nM.

With `CC[C@@H]1/C=C(\C)C[C@H](C)C[C@H](OC)[C@H]2O[C@@](O)(C(=O)C(=O)N3CCCC[C@H]3C(=O)O[C@H](/C(C)=C/C3CC[C@@H](OC[C@@H](O)c4ccc5ccccc5c4)[C@H](OC)C3)[C@H](C)[C@H](O)CC1=O)[C@H](C)C[C@@H]2OC` (stereo partly specified) [17-Ethyl-1,14-dihydroxy-12-{2-[4-(2-hydroxy-2-naphthalen-2-yl-ethoxy)-3-methoxy-cyclohexyl]-1-methyl-vinyl}-23,25-dimethoxy-13,19,21,27-tetramethyl-11,28-dioxa-4-aza-tricyclo[22.3.1.0*4,9*]octacos-18-ene-2,3,10,16-tetraone], the half-maximal inhibitory concentration (IC50) is 2.8 nM.

For the compound `CC[C@@H]1/C=C(\C)C[C@H](C)C[C@H](OC)[C@H]2O[C@@](O)(C(=O)C(=O)N3CCCC[C@H]3C(=O)O[C@H](/C(C)=C/C3CC[C@@H](OC[C@H](O)c4cc(C)cc(C)c4)[C@H](OC)C3)[C@H](C)[C@H](O)CC1=O)[C@H](C)C[C@@H]2OC` (stereo partly specified) [12-(2-{4-[2-(3,5-Dimethyl-phenyl)-2-hydroxy-ethoxy]-3-methoxy-cyclohexyl}-1-methyl-vinyl)-17-ethyl-1,14-dihydroxy-23,25-dimethoxy-13,19,21,27-tetramethyl-11,28-dioxa-4-aza-tricyclo[22.3.1.0*4,9*]octacos-18-ene-2,3,10,16-tetraone], the half-maximal inhibitory concentration (IC50) was found to be 8.7 nM.

Consider `CC[C@@H]1/C=C(\C)C[C@H](C)C[C@H](OC)[C@H]2O[C@@](O)(C(=O)C(=O)N3CCCC[C@H]3C(=O)O[C@H](/C(C)=C/C3CC[C@@H](OC[C@@H](O)c4cc5ccccc5s4)[C@H](OC)C3)[C@H](C)[C@H](O)CC1=O)[C@H](C)C[C@@H]2OC` (stereo partly specified) [12-{2-[4-(2-Benzo[b]thiophen-2-yl-2-hydroxy-ethoxy)-3-methoxy-cyclohexyl]-1-methyl-vinyl}-17-ethyl-1,14-dihydroxy-23,25-dimethoxy-13,19,21,27-tetramethyl-11,28-dioxa-4-aza-tricyclo[22.3.1.0*4,9*]octacos-18-ene-2,3,10,16-tetraone], for which the IC50 worked out at 4 nM.
